Measured values as given in patent US20200247800A1, “SUBSTITUTED BICYCLIC HETEROCYCLIC COMPOUNDS AS NADPH OXIDASE INHIBITORS” (Glenmark Pharmaceuticals S.A., priority 2017, published 2020).

Molecular target: T1, human NOX4 (Homo sapiens, UniProt Q9NPH5)
T1 construct: expressed in transfected cells; membrane fraction used
T1 sequence (Q9NPH5 1-578): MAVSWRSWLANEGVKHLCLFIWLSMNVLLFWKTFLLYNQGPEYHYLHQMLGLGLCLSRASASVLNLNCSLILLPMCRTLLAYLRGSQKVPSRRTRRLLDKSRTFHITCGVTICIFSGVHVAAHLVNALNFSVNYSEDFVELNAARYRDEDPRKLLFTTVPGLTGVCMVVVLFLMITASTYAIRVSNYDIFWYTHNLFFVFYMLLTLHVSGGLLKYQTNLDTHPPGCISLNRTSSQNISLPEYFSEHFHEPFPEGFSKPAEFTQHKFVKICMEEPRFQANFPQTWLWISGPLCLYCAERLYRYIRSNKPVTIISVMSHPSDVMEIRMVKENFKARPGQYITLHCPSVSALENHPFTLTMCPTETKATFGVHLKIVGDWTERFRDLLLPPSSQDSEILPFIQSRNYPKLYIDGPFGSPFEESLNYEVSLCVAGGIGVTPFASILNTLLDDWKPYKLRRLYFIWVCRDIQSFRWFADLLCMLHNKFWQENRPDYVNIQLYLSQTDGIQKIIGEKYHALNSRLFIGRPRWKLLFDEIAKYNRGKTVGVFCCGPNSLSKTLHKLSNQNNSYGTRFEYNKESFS
T1 sequence (P13498 1-195 partner): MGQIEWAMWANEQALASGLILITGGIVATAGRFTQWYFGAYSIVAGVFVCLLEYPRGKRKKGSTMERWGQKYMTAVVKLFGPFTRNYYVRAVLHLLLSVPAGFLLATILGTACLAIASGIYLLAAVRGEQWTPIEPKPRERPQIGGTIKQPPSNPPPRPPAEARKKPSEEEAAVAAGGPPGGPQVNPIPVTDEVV
Experiment: Cell free membrane based in vitro NOX4 assay: H2O2 production by membranes expressing human NOX4, measured with Amplex Red
Type: biochemical
Conditions: for inhibition at 1 µM: 1.0 μM compound, read-out: Percentage inhibition at 1.0 μM; for inhibition at 10 µM: 10.0 μM compound, read-out: Percentage inhibition at 10.0 μM; for IC50: class symbols
Method in brief: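 IC50 came from concentration-response curves fitted as % of the inhibitor-free maximum. H2O2 formation was monitored for 10 min via Amplex Red/HRP fluorescence (544/590 nm) after NADPH start. Membranes from a stable hNOX4/HEK line had 20 min exposure to inhibitor beforehand at pH 7.4.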

| SMILES | inhibition at 1 µM [%] | inhibition at 10 µM [%] | IC50 [nM] |
| --- | --- | --- | --- |
| Cc1nn(CCN2CCCCC2)c2[nH]c(-c3ccccc3Cl)c(O)c(=O)c12 [Example 149, 6-(2-Chlorophenyl)-5-hydroxy-3-methyl-1-(2-(piperidin-1-yl)ethyl)-1H-pyrazolo[3,4-b]pyridin-4(7H)-one] | 79.1 | 74.7 | > 150 |
| CCc1nn(CCN2CCOCC2)c2[nH]c(-c3ccccc3Cl)c(O)c(=O)c12 [Example 146, 6-(2-Chlorophenyl)-3-ethyl-5-hydroxy-1-(2-morpholinoethyl)-1H-pyrazolo[3,4-b]pyridin-4(7H)-one] | 94 | 81.8 | 100 to 150 |
| Cc1nn(C)c2[nH]c(-c3ccc(Cl)cc3F)c(O)c(=O)c12 [Example 25, 6-(4-Chloro-2-fluorophenyl)-5-hydroxy-1,3-dimethyl-1,7-dihydro-4H-pyrazolo[3,4-b]pyridin-4-one] | 90.7 | 78.3 | – |
| CCc1nn(CCN2CCOCC2)c2[nH]c(-c3cccc(C(F)(F)F)c3F)c(O)c(=O)c12 [Example 164, 3-Ethyl-6-(2-fluoro-3-(trifluoromethyl)phenyl)-5-hydroxy-1-(2-morpholinoethyl)-1H-pyrazolo[3,4-b]pyridin-4(7H)-one] | – | – | > 150 |
| CCn1nc(C)c2c(=O)c(O)c(-c3c(F)cc(F)cc3F)[nH]c21 [Example 97, 1-Ethyl-5-hydroxy-3-methyl-6-(2,4,6-trifluorophenyl)-1H-pyrazolo[3,4-b]pyridin-4(7H)-one] | 76.7 | 78.2 | > 150 |
| Cc1nc2c(=O)c(O)c(-c3ccccc3Cl)[nH]c2s1 [Example 62, 5-(2-Chlorophenyl)-6-hydroxy-2-methyl[1,3]thiazolo[5,4-b]pyridin-7(4H)-one] | 39 | 98 | > 150 |
| CCc1nn(CCN2CCN(C)CC2)c2[nH]c(-c3c(F)cccc3F)c(O)c(=O)c12 [Example 166, 6-(2,6-Difluorophenyl)-3-ethyl-5-hydroxy-1-(2-(4-methylpiperazin-1-yl)ethyl)-1H-pyrazolo[3,4-b]pyridine-4(7H)-one] | 96.4 | 95.5 | < 50 |
| Cn1nc(Cc2ccccc2)c2c(=O)c(O)c(-c3c(F)cccc3F)[nH]c21 [Example 115, 3-Benzyl-6-(2,6-difluorophenyl)-5-hydroxy-1-methyl-1H-pyrazolo[3,4-b]pyridin-4(7H)-one] | 76.7 | 80.8 | 100 to 150 |
| C[C@@H]1CN(Cc2nn(C)c3[nH]c(-c4c(F)cccc4F)c(O)c(=O)c23)C[C@H](C)O1 [Example 197, 6-(2,6-Difluorophenyl)-3-((2,6-dimethylmorpholino)methyl)-5-hydroxy-1-methyl-1H-pyrazolo[3,4-b]pyridin-4(7H)-one] | 100 | 100 | 100 to 150 |
| CCc1nn(CCCN2CCOCC2)c2[nH]c(-c3c(F)cccc3F)c(O)c(=O)c12 [Example 175, 6-(2,6-Difluorophenyl)-3-ethyl-5-hydroxy-1-(3-morpholinopropyl)-1H-pyrazolo[3,4-b]pyridin-4(7H)-one] | 84 | 81.3 | 100 to 150 |
| Cc1nn(C2CCC2)c2[nH]c(-c3c(F)cccc3F)c(O)c(=O)c12 [Example 131, 1-Cyclobutyl-6-(2,6-difluorophenyl)-5-hydroxy-3-methyl-1H-pyrazolo[3,4-b]pyridin-4(7H)-one] | 92.4 | 90.2 | < 50 |
| CCc1nn(C)c2[nH]c(-c3ccc(OC)cc3Cl)c(O)c(=O)c12 [Example 73, 6-(2-Chloro-4-methoxyphenyl)-3-ethyl-5-hydroxy-1-methyl-1H-pyrazolo[3,4-b]pyridin-4(7H)-one] | 79.8 | 73.1 | 50 to 100 |
| Cn1nc(C(F)(F)F)c2c(=O)c(O)c(-c3cc(CNC(=O)C(C)(C)C)ccc3Cl)[nH]c21 [Example 132, N-(4-Chloro-3-(5-hydroxy-1-methyl-4-oxo-3-(trifluoromethyl)-4,7-dihydro-1H-pyrazolo[3,4-b]pyridin-6-yl)benzyl)pivalamide] | 74.8 | 88.7 | > 150 |
| Cc1nn(CCN2CCN(C)CC2)c2[nH]c(-c3cccc(C(F)(F)F)c3F)c(O)c(=O)c12 [Example 178, 6-(2-fluoro-3-(trifluoromethyl)phenyl)-5-hydroxy-3-methyl-1-(2-(4-methylpiperazin-1-yl)ethyl)-1H-pyrazolo[3,4-b]pyridin-4(7H)-one] | 89 | – | > 150 |
